How the values were obtained:
K562 = experiment: Cytotoxicity; format: cell-based; details: Homo sapiens
p15^INK4B = experiment: Quantitative RT-PCR of p15INK4B mRNA in leukemia cells; format: cell-based; details: for increase of p15INK4B expression level: MV4-11 cells, 10 μM curcumin
Protocol: (§1) Cell Cycle and Apoptosis Analysis: MV4-11, ML-1, HL-60 and K562 leukemia cell lines were cultured in RPMI medium (VWR International, Inc., West Chester, Pa.) supplemented with 10% fetal bovine serum (Invitrogen, Carlsbad, Calif.) and 1% (v/v) penicillin/streptomycin (Invitrogen Life Technologies; Carlsbad, Calif.) antibiotic solution at 37° C. in an incubator under 5% CO2 atmosphere. For the ex-vivo studies, mononuclear cells obtained from bone marrow (BM) of patient with AML were prepared by Ficoll-Hypaque (Nygaard) gradient centrifugation and cultured with serum-free expansion medium (SFEM) (StemCell technologies, Vancouver, BC) supplemented with GM-CSF (50 ng/ml), IL-3 (20 ng/ml), IL-6 (20 ng/ml) and SCF ([…]). […] The cell cycle and apoptosis of MV4-11 cells was analyzed on a BD FACS Calibur (Beckman Coulter, Fullerton, Calif.) according to the standard protocol provided by the manufacturer.
(§2) Quantitative RT-PCR was used to quantify the mRNA levels of DNMT1, DNMT3a, DNMT3b, p15INK4B and p21. Total RNA was extracted with Trizol reagent (Invitrogen, Carlsbad, Calif.) and reverse transcribed by reverse transcriptase (Invitrogen). Quantitative real-time PCR reactions were performed in triplicate using Taqman gene expression assay (Applied Biosystems) with an ABI prism 7700 detector (Applied Biosystems). The target gene values were normalized to the values of internal control GAPDH or 18 S, and expressed as relative percent change (100×2^(˜ΔΔCt)) over non-treated samples.

DNMT1 [1] = experiment: DNMT1 mRNA and protein in MV4-11 engrafted tumor tissues; format: in vivo; details: MV4-11 engrafted mice, curcumin i.p. 100 mg/kg
Protocol: Cells or tumor tissues were homogenized and lysed in ice-cold lysis buffer (20 mM, pH 7.0 HEPES, 150 mM NaCl, 0.1% NP40 supplemented with 1 mM β-glycerophosphate, 1 mM Na3VO4, 1 mM NaF, 1 mM benzamide and 1 mM phenylmethylsulfonyl fluoride) with protease inhibitors (Protease Inhibitor cocktail Set III, Calbiochem-Novabiochem Corporation, La Jolla, Calif.), and incubated on ice for 20 mM. The lysate was centrifuged at 12,000 g for […] at 4° C. Proteins in the supernatants were resolved on 4-15% SDS-polyacrylamide gradient gels, and then transferred onto nitrocellulose membranes, incubated with appropriate antibodies and subjected to Western blotting. The immunoblotted proteins were detected by ECL reagent (GE Healthcare Bio-Sciences Corp., Piscataway, N.J.).
Quantitative RT-PCR was used to quantify the mRNA levels of DNMT1, DNMT3a, DNMT3b, p15INK4B and p21. Total RNA was extracted with Trizol reagent (Invitrogen, Carlsbad, Calif.) and reverse transcribed by reverse transcriptase (Invitrogen). Quantitative real-time PCR reactions were performed in triplicate using Taqman gene expression assay (Applied Biosystems) with an ABI prism 7700 detector (Applied Biosystems). The target gene values were normalized to the values of internal control GAPDH or 18 S, and expressed as relative percent change (100×2^(˜ΔΔCt)) over non-treated samples. […]

MV4-11 cells [2] = experiment: Apoptosis analysis; format: cell-based; details: 10 μM curcumin
Protocol: as §1

DNMT1 [3] = experiment: Western blot of DNMT1 protein in leukemia cells; format: cell-based
Protocol: (§3) Cell Cycle and Apoptosis Analysis: MV4-11, ML-1, HL-60 and K562 leukemia cell lines were cultured in RPMI medium (VWR International, Inc., West Chester, Pa.) supplemented with 10% fetal bovine serum (Invitrogen, Carlsbad, Calif.) and 1% (v/v) penicillin/streptomycin (Invitrogen Life Technologies; Carlsbad, Calif.) antibiotic solution at 37° C. in an incubator under 5% CO2 atmosphere. […] The cell cycle and apoptosis of MV4-11 cells was analyzed on a BD FACS Calibur (Beckman Coulter, Fullerton, Calif.) according to the standard protocol provided by the manufacturer.
(§4) Cells or tumor tissues were homogenized and lysed in ice-cold lysis buffer (20 mM, pH 7.0 HEPES, 150 mM NaCl, 0.1% NP40 supplemented with 1 mM β-glycerophosphate, 1 mM Na3VO4, 1 mM NaF, 1 mM benzamide and 1 mM phenylmethylsulfonyl fluoride) with protease inhibitors (Protease Inhibitor cocktail Set III, Calbiochem-Novabiochem Corporation, La Jolla, Calif.), and incubated on ice for 20 mM. […] The immunoblotted proteins were detected by ECL reagent (GE Healthcare Bio-Sciences Corp., Piscataway, N.J.).

[4] = In-vitro stability of curcumin in mouse plasma at 37° C; format: in vitro ADME
Excerpt: (§5) Therefore, all mouse blood and plasma samples have to be processed on ice to avoid potential degradation for its pharmacokinetic studies.

DNMT3b [5] = experiment: Western blot of DNMT3b protein in MV4-11 cells; format: cell-based
Protocol: as §3, §4

[6] = rats, orally administered; cited from earlier work
in vivo = details: CD2F1, mouse, in vivo
Excerpt: Extracts of bio-matrices were subjected to HPLC mass spectrometric analysis.

MV4-11 cells [7] = experiment: Cell viability / anti-proliferation; format: cell-based
DNMT1 [8] = experiment: Quantitative RT-PCR of DNMT1 transcripts in MV4-11 cells; format: cell-based; parameters: dose or concentration left out as unconfirmed; details: curcumin
Protocol: as §1
(§6) Quantitative RT-PCR was used to quantify the mRNA levels of DNMT1, DNMT3a, DNMT3b, p15INK4B and p21. […] Quantitative real-time PCR reactions were performed in triplicate using Taqman gene expression assay (Applied Biosystems) with an ABI prism 7700 detector (Applied Biosystems). The target gene values were normalized to the values of internal control GAPDH or 18 S, and expressed as relative percent change (100×2^(˜ΔΔCt)) over non-treated samples.

DNMT3a [9] = experiment: DNMT3a mRNA in MV4-11 engrafted tumor tissues; format: in vivo; details: MV4-11 engrafted mice, curcumin i.p. 100 mg/kg
Protocol: as §2
Female athymic nu/nu mice (4-6 weeks old, 18-22 g) were obtained from Charles River Laboratory (Wilmington, Mass.) and acclimated for 1 week in a pathogen-free enclosure before start of study. Animals were given sterile rodent chow and water ad libitum and were housed in sterile filter-top cages with 12 hour light/dark cycles. All experiments were conducted in accordance with the guidelines of the Association for Assessment and Accreditation of Laboratory Animal Care International. […] Tumor volume was calculated by using the equation V=2×A×B^2/3, where A is the longer (horizontal as width) diameter (mm) and B is the shorter (perpendicular as depth) diameter (mm) and expressed in cubic millimeter. […]

[10] = Stability of curcumin in reconstituted solution in auto-sampler at 4° C; format: physicochemical; details: auto-sampler 4° C, up to 8 hours
Excerpt: as §5

MV4-11 cells [11] = experiment: Cell cycle distribution by flow cytometry; format: cell-based; details: 10 μM curcumin, 48 hour
Protocol: as §1

DNMT3a [12] = experiment: Quantitative RT-PCR of DNMT3a mRNA in MV4-11 cells; format: cell-based; details: 10 μM
Protocol: as §1, §6

DNMT3b [13] = experiment: Quantitative RT-PCR of DNMT3b mRNA in MV4-11 cells; format: cell-based; details: 10 μM
Protocol: as §1, §6

DNMT1 [14] = experiment: Ex vivo DNMT1 mRNA and protein in AML patient primary blast cells; format: cell-based, human
Protocol: as §3, §4
Quantitative RT-PCR was used to quantify the mRNA levels of DNMT1, DNMT3a, DNMT3b, p15INK4B and p21. […] Quantitative real-time PCR reactions were performed in triplicate using Taqman gene expression assay (Applied Biosystems) with an ABI prism 7700 detector (Applied Biosystems). […]

DNMT3a [15] = experiment: Western blot of DNMT3a protein in MV4-11 cells; format: cell-based
Protocol: as §3, §4

HL-60 cells = experiment: Cell viability / anti-proliferation; format: cell-based

Structure (SMILES): COc1cc(/C=C/C(=O)CC(=O)/C=C/c2ccc(O)c(OC)c2)ccc1O [curcumin]
- IC50 (K562): 10.4 µM
- p15INK4B reactivation (p15^INK4B; AML primary blast cells): reactivated
- p15INK4B reactivation (p15^INK4B; HL-60 leukemia cells): reactivated
- increase of p15INK4B expression level (p15^INK4B; 48 hours): approximately 12 fold
- increase of p15INK4B expression level (p15^INK4B; 72 hours): ~43 fold
- mRNA level of DNMT1 in engrafted tissues (DNMT1 [1]): significantly decreases
- protein level of DNMT1 in engrafted tissues, decrease (DNMT1 [1]): 50%
- portion of apoptotic cells (MV4-11 cells [2]): ~30%
- DNMT1 protein level decrease (DNMT1 [3]; ML-1 cells): 50%
- DNMT1 protein level (DNMT1 [3]; MV4-11 cells, 10 μM): completely depleted
- half-life [4]: 23.6 min
- curcumin level (below detection limit) ([4]; by 4 hour): < 1 ng/mL
- curcumin decomposed ([4]; in 2 hours): more than 97%
- DNMT3b protein level reduction (DNMT3b [5]): 50%
- elimination half-life (T1/2) [6]: 102 ± 30 min
- concentration at 10 min (in vivo): 1620 ng/mL
- concentration at 20 min (in vivo): 1620 ng/mL
- concentration at 30 min (in vivo): 2450 ng/mL
- concentration at 45 min (in vivo): 661 ng/mL
- concentration at 60 min (in vivo): 448 ng/mL
- concentration at 90 min (in vivo): 135 ng/mL
- concentration at 120 min (in vivo): 231 ng/mL
- concentration at 240 min (in vivo): 169 ng/mL
- concentration at 480 min (in vivo): 58.3 ng/mL
- IC50 (MV4-11 cells [7]; Homo sapiens, MV4-11): 10 to 15 µM
- cell viability decreased to (MV4-11 cells [7]; MV4-11 cells (FIG. 13B)): 60-70%
- decrease in the level of DNMT1 transcripts compared to untreated control (DNMT1 [8]; 48 hours): 70%
- decrease in the level of DNMT1 transcripts compared to untreated control (DNMT1 [8]; 72 hours): 90%
- mRNA level of DNMT3a in engrafted tissues (DNMT3a [9]): significantly decreases
- % of original concentrations remaining [10]: > 85%
- cell population in G0/G1 phase (MV4-11 cells [11]): 52.0%
- cell population in G2/M phase (MV4-11 cells [11]): 8.0%
- cell population in S phase (MV4-11 cells [11]): 16.1%
- cell population in SubG1 phase (MV4-11 cells [11]): 24.9%
- DNMT3a mRNA level, % of the control (DNMT3a [12]; 48 h): 50%
- DNMT3a mRNA level, % of the control (DNMT3a [12]; 72 h): 20%
- DNMT3b mRNA level, % of the control (DNMT3b [13]; 48 h): 40%
- DNMT3b mRNA level, % of the control (DNMT3b [13]; 72 h): 10%
- DNMT1 mRNA (DNMT1 [14]): down-regulate
- DNMT1 protein level (DNMT1 [14]): down-regulate
- DNMT3a protein level reduction (DNMT3a [15]): 50%
- cell viability decreased to (HL-60 cells; HL-60 cells (FIG. 13B)): 60-70%
- IC50 (HL-60 cells; Homo sapiens, HL-60): 10 to 15 µM

— patent US20130143969A1 (THE OHIO STATE UNIVERSITY, priority 2010, published 2013)
